Test results published in ChEMBL document CHEMBL1201862, “PubChem BioAssay data set” (2004).
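Where inhibition never reached the appropriate level, the endpoint shown equals the highest concentration tested. Otherwise, values were interpolated linearly from a five-concentration, 48-hour dose response in 96-well plates. GI50: concentration for 50% inhibition of growth.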 Activity calls are given as the source filed them. Cut-off read from the data, not from the text of the source: active = GI50 up to about 1.1 µM and inactive = higher.

Key:
Test in all cases: DTP human tumour cell line panel, 48 h
MDA-MB-231 = system: MDA-MB-231
HOP-62 = system: HOP-62
OVCAR-3 = system: OVCAR-3
RPMI-8226 = system: RPMI-8226
SF-268 = system: SF-268
A498 = system: A498
KM12 = system: KM12
SK-MEL-28 = system: SK-MEL-28
CCRF-CEM = system: CCRF-CEM
TK-10 = system: TK-10
UACC-257 = system: UACC-257
MDA-MB-435 = system: MDA-MB-435
EKVX = system: EKVX
HT-29 = system: HT-29
OVCAR-8 = system: OVCAR-8
OVCAR-5 = system: OVCAR-5
MDA-N = system: MDA-N
HCT-116 = system: HCT-116
A549 = system: A549

Compound	GI50 (MDA-MB-231)	GI50 (HOP-62)	GI50 (OVCAR-3)	GI50 (RPMI-8226)	GI50 (SF-268)	GI50 (A498)	GI50 (KM12)	GI50 (SK-MEL-28)	GI50 (CCRF-CEM)	GI50 (TK-10)	GI50 (UACC-257)	GI50 (MDA-MB-435)	GI50 (EKVX)	GI50 (HT-29)	GI50 (OVCAR-8)	GI50 (OVCAR-5)	GI50 (MDA-N)	GI50 (HCT-116)	GI50 (A549)
CC1(C)O[C@H]2OC(CO)C(N=[N+]=[N-])[C@H]2O1 (stereo partly drawn)	> 100 µM (inactive)	> 100 µM (inactive)	> 100 µM (inactive)	> 100 µM (inactive)	> 100 µM (inactive)	> 100 µM (inactive)	> 100 µM (inactive)	> 100 µM (inactive)	> 100 µM (inactive)	> 100 µM (inactive)	> 100 µM (inactive)	> 100 µM (inactive)	> 100 µM (inactive)	> 100 µM (inactive)	> 100 µM (inactive)	> 100 µM (inactive)	> 100 µM (inactive)	> 100 µM (inactive)	> 100 µM (inactive)
N=c1c2c(ncn1N)Oc1c(c(-c3ccccc3)nn1-c1ccccc1)C2c1ccc(Cl)cc1 (stereo not drawn)	2.63 µM (inactive)	1.66 µM (inactive)	1.56 µM (inactive)	2.35 µM (inactive)	1.71 µM (inactive)	1.86 µM (inactive)	1.6 µM (inactive)	1.76 µM (inactive)	2.47 µM (inactive)	1.76 µM (inactive)	1.76 µM (inactive)	1.62 µM (inactive)	1.82 µM (inactive)	1.39 µM (inactive)	1.95 µM (inactive)	1.5 µM (inactive)	1.82 µM (inactive)	1.49 µM (inactive)	1.82 µM (inactive)
C[C@@H]1CCC2[C@@H](C)[C@H](O[C@H]3O[C@@H]4O[C@@]5(C)CCC6[C@H](C)CCC([C@H]3C)[C@]64OO5)O[C@@H]3O[C@@]4(C)CCC1[C@@]23OO4 (stereo partly drawn)	0.385 µM (active)	4.04 µM (inactive)	0.408 µM (active)	0.0127 µM (active)	3.44 µM (inactive)	4.15 µM (inactive)	0.0317 µM (active)	5.69 µM (inactive)	0.0462 µM (active)	0.205 µM (active)	0.0912 µM (active)	0.06 µM (active)	0.142 µM (active)	0.0491 µM (active)	0.0929 µM (active)	0.352 µM (active)	0.136 µM (active)	0.0177 µM (active)	0.0914 µM (active)
CC1CCCCCC(=O)c2c(O)cc(O)cc2CC(=O)O1 (stereo not drawn) [CURVULARIN]	> 100 µM (inactive)	> 100 µM (inactive)	96.6 µM (inactive)	67.8 µM (inactive)	> 100 µM (inactive)	> 100 µM (inactive)	> 100 µM (inactive)	> 100 µM (inactive)	74.3 µM (inactive)	90.2 µM (inactive)	55.6 µM (inactive)	> 100 µM (inactive)	61.5 µM (inactive)	> 100 µM (inactive)	> 100 µM (inactive)	> 100 µM (inactive)	> 100 µM (inactive)	> 100 µM (inactive)	> 100 µM (inactive)
CCOC(=O)c1cc2cc3c4c(c2oc1=O)CCCN4CCC3	22.3 µM (inactive)	26.2 µM (inactive)	29.9 µM (inactive)	19.3 µM (inactive)	19.2 µM (inactive)	17.6 µM (inactive)	23.8 µM (inactive)	43.4 µM (inactive)	29.4 µM (inactive)	21.6 µM (inactive)	49.5 µM (inactive)	28.3 µM (inactive)	12 µM (inactive)	31.8 µM (inactive)	22.1 µM (inactive)	> 100 µM (inactive)	37.2 µM (inactive)	27 µM (inactive)	21.5 µM (inactive)
Nc1n[n+](CC(=O)c2ccccc2)c2sc(-c3ccccc3)nn12	> 100 µM (inactive)	> 100 µM (inactive)	> 100 µM (inactive)	60 µM (inactive)	18.8 µM (inactive)	> 100 µM (inactive)	46.1 µM (inactive)	> 100 µM (inactive)	45.7 µM (inactive)	> 100 µM (inactive)	> 100 µM (inactive)	27.7 µM (inactive)	> 100 µM (inactive)	55 µM (inactive)	78.2 µM (inactive)	> 100 µM (inactive)	84.7 µM (inactive)	44.2 µM (inactive)	> 100 µM (inactive)
C/C=C/COc1cc(NC(=S)c2ccoc2C)ccc1OC	29.5 µM (inactive)	34.7 µM (inactive)	50.2 µM (inactive)	23 µM (inactive)	44.3 µM (inactive)	49.3 µM (inactive)	> 100 µM (inactive)	> 100 µM (inactive)	> 100 µM (inactive)	97.1 µM (inactive)	> 100 µM (inactive)	> 100 µM (inactive)	49.8 µM (inactive)	> 100 µM (inactive)	57.9 µM (inactive)	> 100 µM (inactive)	> 100 µM (inactive)	> 100 µM (inactive)	> 100 µM (inactive)
